This passage reports Activity, EC50 and Emax results from ChEMBL document CHEMBL4219040, “Modulation of Glycine-Mediated Spinal Neurotransmission for the Treatment of Chronic Pain” (J Med Chem, 2018).

For test [1], the species on record is Mus musculus. The experiment in a line: Analgesic activity in zymosan-A induced inflammation mouse model assessed as reduction in mechanical hyperalgesia. The format is functional. Further details: scale not given: the % may be the effect or the level left.
Test [2] concerns the target T1, Glycine receptor subunit alpha-3 (Mus musculus) (UniProt Q91XP5).
T1 sequence (whole entry): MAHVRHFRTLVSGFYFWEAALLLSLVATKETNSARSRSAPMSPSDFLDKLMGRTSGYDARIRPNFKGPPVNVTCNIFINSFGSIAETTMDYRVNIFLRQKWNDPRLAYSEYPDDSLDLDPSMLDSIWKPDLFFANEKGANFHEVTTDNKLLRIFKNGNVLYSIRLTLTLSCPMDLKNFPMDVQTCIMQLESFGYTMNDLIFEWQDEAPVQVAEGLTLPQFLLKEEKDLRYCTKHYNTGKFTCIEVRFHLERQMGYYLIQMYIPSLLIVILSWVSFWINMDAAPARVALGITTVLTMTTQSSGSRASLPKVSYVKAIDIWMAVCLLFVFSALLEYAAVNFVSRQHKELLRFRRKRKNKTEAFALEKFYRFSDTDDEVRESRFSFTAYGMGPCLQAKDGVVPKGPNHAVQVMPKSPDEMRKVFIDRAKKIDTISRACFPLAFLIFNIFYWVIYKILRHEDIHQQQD
The test is described as follows: Allosteric modulation of zymosan-A treated GlyRalpha3 in VGAT::ChR2 BAC transgenic mouse lumbar spinal cord slices assessed as increase in decay time constants of light-evoked Gly-IPSC at 100 uM by Whole cell patch clamp method.

Test [3] is filed under the species Mus musculus. The experiment in a line: Analgesic activity in zymosan-A induced inflammation GlyR3 knock out mouse model assessed as reduction in mechanical hyperalgesia. It counts as functional. Also noted: scale not given: the % may be the effect or the level left.
In test [4] the target is T2, Glycine receptor alpha-3/beta (Homo sapiens, UniProt O75311+P48167). The experiment in a line: Positive allosteric modulation of human GlyRalpha3beta expressed in CHO cells assessed as potentiation of EC5 to EC10 glycine-induced response at 10 uM by manual patch clamp assay. It counts as cell-based. Background: The patch-clamp technique gives a direct electrical read-out from membranes.

The target in test [5] is T2, Glycine receptor alpha-3/beta. The experiment in a line: Positive allosteric modulation of human GlyRalpha3beta expressed in CHO cells assessed as potentiation of EC20 glycine-induced ion flux at 10 uM by HT assay. The format is cell-based.
Test [6] has the same target. The experiment in a line: Positive allosteric modulation of human GlyRalpha3beta expressed in CHO cells assessed as potentiation of EC20 glycine-induced response at 5.9 uM by fluorescence based HTS assay. It counts as cell-based.
Test [7] addresses T1, Glycine receptor subunit alpha-3 (Mus musculus). The test is described as follows: Allosteric modulation of GlyRalpha3 in VGAT::ChR2 BAC transgenic mouse lumbar spinal cord slices assessed as increase in decay time constants of light-evoked Gly-IPSC at 100 uM by Whole cell patch clamp method.
For test [8], the target named is T3, Glycine receptor subunit alpha-3 (Homo sapiens) (UniProt O75311).
T3 sequence (whole entry): T1 sequence (whole entry) with N32D, T372M, V398M, V399T, A406P
The test is described as follows: Positive allosteric modulation of human GlyRalpha3 expressed in HEK293 cells assessed as potentiation of glycine-induced current flux at 100 uM by electrophysiology method relative to control. The format is cell-based.

For test [9], the target named is T4, Glycine receptor subunit alpha-3 (Homo sapiens, UniProt O75311).
T4 sequence (O75311 whole entry): T1 sequence (whole entry) with N32D, T372M, V398M, V399T, A406P
The experiment in a line: Positive allosteric modulation of human GlyRalpha3 expressed in HEK293 cells assessed as potentiation of glycine-induced current flux by electrophysiology method. It counts as cell-based.

Test [10] has as its target T5, Glycine receptor subunit alpha-1 (Homo sapiens) (UniProt P23415).
T5 sequence (whole entry): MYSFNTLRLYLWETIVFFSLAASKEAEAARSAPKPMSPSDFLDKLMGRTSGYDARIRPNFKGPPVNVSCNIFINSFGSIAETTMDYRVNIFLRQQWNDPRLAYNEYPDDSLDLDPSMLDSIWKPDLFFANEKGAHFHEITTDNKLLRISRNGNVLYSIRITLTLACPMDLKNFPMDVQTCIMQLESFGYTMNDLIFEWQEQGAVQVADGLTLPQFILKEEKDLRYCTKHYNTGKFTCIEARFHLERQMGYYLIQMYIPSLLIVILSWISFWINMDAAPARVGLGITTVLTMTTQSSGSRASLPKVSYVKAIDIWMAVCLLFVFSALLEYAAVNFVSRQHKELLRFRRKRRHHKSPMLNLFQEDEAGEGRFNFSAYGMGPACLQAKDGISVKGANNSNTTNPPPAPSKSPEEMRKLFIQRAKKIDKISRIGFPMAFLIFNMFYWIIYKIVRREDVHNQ
The test is described as follows: Positive allosteric modulation of human GlyRalpha1 expressed in HEK293 cells assessed as potentiation of glycine-induced current flux at 100 uM by electrophysiology method relative to control. It counts as cell-based.

Test [11] concerns the target T6, Glycine receptor subunit alpha-1 (Mus musculus, UniProt Q64018).
T6 sequence (Q64018 whole entry): T5 sequence (whole entry) with L9F, E362D, A365G, S396N, Q457K
The experiment in a line: Positive allosteric modulation of mouse GlyRalpha1 expressed in HEK293 cells assessed as potentiation of glycine-induced calcium flux by calcium dye-5 based FLIPR assay. It counts as cell-based. In general terms: A change in cytosolic calcium serves as a functional read-out for many receptors and channels.

Test [12] concerns the target T3, Glycine receptor subunit alpha-3 (Homo sapiens). The test is described as follows: Positive allosteric modulation of human GlyRalpha3 expressed in HEK293 cells assessed as potentiation of glycine-induced calcium flux by calcium dye-5 based FLIPR assay relative to glycine. It counts as cell-based.
In test [13] the target is T7, Glycine receptor subunit alpha-3 (Mus musculus, UniProt Q91XP5).
T7 sequence (Q91XP5 whole entry): T1 sequence (whole entry)
The experiment in a line: Positive allosteric modulation of mouse GlyRalpha3 expressed in HEK293 cells assessed as potentiation of glycine-induced calcium flux by calcium dye-5 based FLIPR assay. The format is cell-based.

Test [14] concerns the target T2, Glycine receptor alpha-3/beta. The experiment in a line: Positive allosteric modulation of human GlyRalpha3beta expressed in HEK293 cells assessed as potentiation of glycine-induced calcium flux by calcium dye-5 based FLIPR assay relative to glycine. The format is cell-based.
Test [15] has as its target T5, Glycine receptor subunit alpha-1 (Homo sapiens). The experiment in a line: Positive allosteric modulation of human GlyRalpha1 expressed in HEK293 cells assessed as potentiation of glycine-induced calcium flux by calcium dye-5 based FLIPR assay relative to glycine. It counts as cell-based.
For test [16], the target named is Glycine receptor (alpha-1/beta) (Homo sapiens) (UniProt P23415+P48167). The test is described as follows: Positive allosteric modulation of human GlyRalpha1beta expressed in HEK293 cells assessed as potentiation of glycine-induced calcium flux by calcium dye-5 based FLIPR assay relative to glycine. It counts as cell-based.
The target of test [17] is T8, Glycine receptor subunit alpha-1 (Mus musculus) (UniProt Q64018).
T8 sequence (whole entry): T5 sequence (whole entry) with L9F, E362D, A365G, S396N, Q457K
The experiment in a line: Positive allosteric modulation of mouse GlyRalpha1 expressed in HEK293 cells assessed as potentiation of glycine-induced calcium flux by calcium dye-5 based FLIPR assay relative to glycine. The format is cell-based.

Test [18] addresses T1, Glycine receptor subunit alpha-3 (Mus musculus). The experiment in a line: Positive allosteric modulation of mouse GlyRalpha3 expressed in HEK293 cells assessed as potentiation of glycine-induced calcium flux by calcium dye-5 based FLIPR assay relative to glycine. It counts as cell-based.

Substitutions are numbered along the chain they refer to.

What is called EC50 is the concentration needed to bring the measured effect to its halfway point. One may read the Emax as the greatest response seen or fitted, relative to the assay's reference.

Consider `CC(C)(C)c1cccc(C(C)(C)C)c1O`, for which the Activity in the test listed under Mus musculus [1] was determined as 44.3%; in test [2], 23.5%; in the test filed under Mus musculus [3] it was 16%; in [4], 309%; in test [5] it was 116%; in test [6] it was 134%. For the same compound, the Activity in test [7] was 54%.

For the compound `CC1=C[C@@H](/C=C(\C)CCCC2=CCN(CC(=O)O)C2=O)[C@]2(OC(=O)C(C)(O)C2=O)[C@@H]2[C@@H](C)CC[C@@H]12` (stereo partly drawn), the results for the Activity in test [8] and in test [10] were 260% and 110%, respectively. The EC50 in test [9] is 8500 nM.

Consider `CN1C(=O)[C@@H]2CN(S(=O)(=O)c3ccc4occc4c3)C[C@@H]2c2cnccc21`, for which the 50% effective concentration (EC50) in test [11] was found to be 268 nM; in test [13], 490 nM. For the same compound, the Emax was 100% in test [12]; 102% in test [14]; 102% in test [15]; 104% in test [16]; 93.5% in [17]; 63.5% in test [18].
